Laboratory results from US11459330B2, “Substituted bicyclic heterocyclic compounds as PRMT5 inhibitors” (LUPIN LIMITED, priority 2017, dated 2022).

Assays:
PRMT5:MEP50 = PRMT5:MEP50 (Homo sapiens, UniProt O14744); assay: PRMT5 biochemical HTRF assay (Biochemical Assay Protocol 1 / 2); details: biotinylated H4R3 substrate, 1 μM SAM, protocol 1 or 2 not given, activity range 300 pM to 950 pM, read-out: IC50 (PRMT5 inhibition), activity range
Experimental: Biochemical Assay Protocol 1
(§1) Inhibitory effect of compounds on PRMT5 was assessed using HTRF detection technology in biochemical assay. Biotinylated H4R3 (residues 1-21) was used as a substrate. Compounds were pre-incubated with 15-25 ng PRMT5:MEP50 per well of a 384-well plate for 30 min at room temperature in the assay buffer containing 20 mM Bicine, pH 7.6, 25 mM NaCl, 2 mM DTT, 0.01% Chicken albumin and 0.01% Tween-20. Reaction was initiated by adding 1 μM of SAM and 50 nM biotinylated H4R3. Total assay volume was 15 μL. Reaction was continued for 120 min at room temperature. Then detection solution containing Streptavidin-Eu cryptate, anti-rabbit IgG-XL-665, Histone H4R3 Dimethyl Symmetric (H4R3me2s) Polyclonal Antibody, all prepared in HTRF detection buffer was added and further incubated for 30 min at room temperature. HTRF signal was recorded in PHERAStar microplate reader. Ratio of signal obtained at 665 nm and 620 nm was used to compute the percent inhibition of compound as follows % Inhibition=100−((Test Ratio−Negative control Ratio)/(Positive control Ratio−Negative control Ratio)*100) where Positive control=PRMT5+SAM+H4R3 Negative control=PRMT5+H4R3 Biochemical Assay Protocol 2
as §1, with “2.5” for “15-25”, “4 h” for “120 min”, “control=PRMT5+H4R3” for “control=PRMT5+H4R3 Biochemical Assay Protocol 2”

PANC-1 cells = assay: Anti-cancer assay (Panc-1), cell viability CellTiterGlo; type: cell-based; details: Homo sapiens, PANC-1, 168 h, 7 days, activity range, lower bound in pM, upper bound in nM
Experimental: Anticancer Activity Assay
Z-138 cells were seeded at a density of 2000-3000 cells per well in culture media (IMDM+10% FBS). PANC-1 (ATCC, CRL-1469™) and MIA PaCa-2 (ATCC, CRL-1420™) cells were seeded at a density of 200-300 cells per well in culture media (DMEM+10% FBS). Cells were seeded in opaque, flat bottomed tissue culture grade 96-well plates and Z-138 cells (suspension) were seeded and treated on the same day with various concentrations of test compounds. PANC-1 and MIA PaCa-2 cells, being adherent, were kept for overnight settlement at standard cell culture conditions (37° C., 5% CO2). On the following day, cells were treated with various concentrations of test compounds. Cells were treated with test compounds for a period of 96 h, 7 days and 10 days, for Z-138 cells, PANC-1 cells and MIA PaCa-2 cells, respectively. Cell viability was assessed using CellTiterGlo™ (Promega, USA) as per manufacturer's instructions. Relative Light Units (RLU) were read in Synergy™ 2 reader (Biotek, USA). The assay measures cellular ATP as an indicator of cell viability. RLU is proportional to the number of viable cells in the respective well.
% inhibition of cell viability was calculated relative to the vehicle control samples containing media with 0.1% DMSO alone as per the formula below. (Avg. of Untreated Control−Avg. of Test)×100 Avg. of Untreated Control
The IC50 values of individual compounds were calculated with Non Linear Regression Analysis using Graph Pad Prism (Graph Pad software, Inc, USA).
Anti-Cancer Assay (Panc-1)

Z-138 xenograft = assay: In vivo efficacy, Z-138 xenograft mouse model; set-up: species or system female NOD.CB17-Prkdc<scid>/J mice; details: mice, oral twice a day; for % of tumor growth inhibition: 1 mg/kg dose, after 38 days
Experimental: In Vivo Efficacy Experiments Tumor xenograft for mantle cell lymphoma was established by injection of cells into the right flank of female NOD.CB17-Prkdc/J mice with an age between 7-11 weeks purchased from The Jackson Laboratory, USA. All animal study proposals were reviewed and approved by the Institutional Animal Ethics Committee (IAEC) prior to initiation of experimentation. Z-138 Xenograft For Z-138 xenograft mouse model, Z-138 cells (ATCC® CRL-3001™) were grown in IMDM medium supplemented with 10% FBS. Cells were incubated under standard conditions at 37° C. and 5% CO2. For generating tumors, Z-138 cells in IMDM medium were mixed with Matrigel (Corning® Matrigel® Basement Membrane Matrix) in a ratio of 1:1. 10×10^6 cells) in a volume of 200 μL were injected subcutaneously in each mouse to establish tumors. Mice were randomized into treatment groups of 8-10 mice, once tumors reached an average volume between 100 to 120 mm^3. Treatment was initiated on day of randomization and continued until end of the study. The Vehicle and test compound treatment groups were administered respective treatments orally, using gavage tubing, at an application volume of 10 mL/kg per mouse twice a day. Mice were housed in individually ventilated cages (IVC) at room temperature of 22+3° C., humidity 50+20% and 12/12 h light/dark cycle. All the experimental activities were carried-out inside the biosafety cabinets to ensure sterility.
Tumor size was measured with Digimatic Vernier caliper (Mitutoyo, Japan) when the tumors became palpable. Tumor volume (T. V.) is calculated by using the formula: Tumor volume (mm3)=(L×W2)/2 Where, L: Length of tumor, W: Width of tumor in millimeter Percent tumor growth inhibition (% TGI) is calculated using the formula: % TGI=[1−(Tf−Ti)/(Cf−Ci)]×100 Where, Tf and Ti, are the final and initial tumor volumes (test compound), and Cf and Ci are the final and initial mean tumor volumes (vehicle group), respectively. Percent tumor regression is calculated as: % TR:(Ti−Tf)/(Ti)×100 Where, Tf and Ti, are the final and initial tumor volumes, respectively.

Chain of PRMT5:MEP50 (O14744 whole entry): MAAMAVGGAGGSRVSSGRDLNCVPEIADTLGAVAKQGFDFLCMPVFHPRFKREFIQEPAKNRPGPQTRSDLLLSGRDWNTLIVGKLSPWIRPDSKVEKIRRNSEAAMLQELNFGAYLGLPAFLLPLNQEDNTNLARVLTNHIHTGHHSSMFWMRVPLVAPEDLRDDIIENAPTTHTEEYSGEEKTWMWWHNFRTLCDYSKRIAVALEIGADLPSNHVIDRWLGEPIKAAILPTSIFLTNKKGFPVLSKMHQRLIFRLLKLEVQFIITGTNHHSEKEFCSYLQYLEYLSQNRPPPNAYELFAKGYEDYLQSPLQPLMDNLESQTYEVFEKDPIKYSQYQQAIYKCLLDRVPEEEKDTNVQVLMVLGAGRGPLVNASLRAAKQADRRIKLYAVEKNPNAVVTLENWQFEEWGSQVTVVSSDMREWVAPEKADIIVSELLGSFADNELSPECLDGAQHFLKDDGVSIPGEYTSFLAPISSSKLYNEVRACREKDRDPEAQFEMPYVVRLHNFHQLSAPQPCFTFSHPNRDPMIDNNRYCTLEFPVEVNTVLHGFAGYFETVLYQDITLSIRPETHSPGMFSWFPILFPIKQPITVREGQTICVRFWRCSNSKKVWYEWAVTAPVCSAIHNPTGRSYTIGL
Chain of PRMT5:MEP50 (Q9BQA1 whole entry partner): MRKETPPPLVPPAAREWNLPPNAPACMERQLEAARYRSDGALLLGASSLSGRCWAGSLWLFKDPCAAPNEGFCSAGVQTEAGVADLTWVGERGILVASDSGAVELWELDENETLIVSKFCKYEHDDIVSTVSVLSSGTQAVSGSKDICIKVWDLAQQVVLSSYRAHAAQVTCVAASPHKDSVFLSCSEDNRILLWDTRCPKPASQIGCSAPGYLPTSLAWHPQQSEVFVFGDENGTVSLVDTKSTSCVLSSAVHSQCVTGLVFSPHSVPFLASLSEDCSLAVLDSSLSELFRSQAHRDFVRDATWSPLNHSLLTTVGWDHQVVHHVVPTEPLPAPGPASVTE

IC50 (PRMT5:MEP50) [nM]	IC50 (PANC-1 cells) [pM]	Structure (SMILES)	% of tumor growth inhibition (Z-138 xenograft) [%]	tumor growth inhibition (Z-138 xenograft; 5 mg/kg dose) [%]	tumor regression (Z-138 xenograft; 5 mg/kg dose) [%]
0.3 to 0.95	300 to 20000	CC(Cc1cc(F)c2cc(Cl)c(N)nc2c1)C1=C[C@@H](n2ccc3c(N)ncnc32)[C@H](O)[C@@H]1O (single isomer, unassigned) [Compound-33b]	100	–	–
0.3 to 0.95	300 to 20000	Nc1nc2cc(CCC3=C[C@@H](n4ccc5c(N)ncnc54)[C@H](O)[C@@H]3O)cc(F)c2cc1Cl [Compound-24, (1S,2R,5R)-3-(2-(2-amino-3-chloro-5-fluoroquinolin-7-yl)ethyl)-5-(4-amino-7H-pyrrolo[2,3-d]pyrimidin-7-yl)cyclopent-3-ene-1,2-diol]	100	–	–
0.3 to 0.95	300 to 20000	Cc1ncnc2c1ccn2[C@@H]1C=C(CCc2cc(F)c3cc(Cl)c(N)nc3c2)[C@@H](O)[C@H]1O [Compound-13, (1S,2R,5R)-3-(2-(2-amino-3-chloro-5-fluoroquinolin-7-yl)ethyl)-5-(4-methyl-7H-pyrrolo[2,3-d]pyrimidin-7-yl)cyclopent-3-ene-1,2-diol]	100	–	–
0.3 to 0.95	300 to 20000	Nc1nc2cc(CC[C@@]34C[C@@H]3[C@@H](n3ccc5c(N)ncnc53)[C@H](O)[C@@H]4O)cc(F)c2cc1Cl [Compound-48, (1R,2R,3S,4R,5S)-1-(2-(2-Amino-3-chloro-5-fluoroquinolin-7-yl)ethyl)-4-(4-amino-7H-pyrrolo[2,3-d]pyrimidin-7-yl)bicyclo[3.1.0]hexane-2,3-diol]	–	100	63
